One experiment deals with CDK6/Cyclin D3 (Homo sapiens, UniProt Q00534). Put plainly: inhibition of CDK6/Cyclin D3 kinase, TR-FRET. Format: biochemical. The following applies: CDK6/Cyclin D3, 1 mM ATP, 0.15 μM Rb (Ser780)-biotin substrate, pH 7.0, 60 min preincubation, 120 min reaction, room temperature; read-out: CDK6D3 IC50. On the procedure:
(§1) Compounds disclosed herein were tested for inhibition of CDK4/Cyclin D1 or CDK6/Cyclin D3 kinase in an assay based on the time-resolved fluorescence-resonance energy transfer (TR-FRET) methodology. The assay was carried out in 384-well low volume black plates in a reaction mixture containing CDK4/Cyclin D1 or CDK6/Cyclin D3, 1 mM ATP, 0.15 μM Rb (Ser780)-biotin substrate and 0-10 μM compound in buffer containing 50 mM HEPES pH7.0, 0.02% NaN3, 0.01% BSA, 0.1 mM Orthovanadate, 50 mM MgCl2, 1 mM DTT and 0.005% Tween-20. The kinase was incubated with compound for 60 minutes at room temperature and the reaction was initiated by the addition of ATP and Rb (Ser780)-biotin substrate. After reaction at room temperature for 120 minutes, an equal volume of stop/detection solution was added according to the manufacture's instruction (Cisbio Bioassays). The stop/detection solution contained Streptavidin-XL665 and Anti-pRb (Ser780) mAb-Eu Cryptate in Detection buffer (Cisbio Bioassays). Plates were incubated at room temperature for 60 minutes, and the TR-FRET signals (ex337 nm, em665 nm/620 nm) were recorded on a PHERAstar FSX plate reader (BMG Labtech). The inhibition percentage of CDK4/Cyclin D1 or CDK6/Cyclin D3 kinase activity in presence of increasing concentrations of compounds was calculated based on the ratio of fluorescence at 665 nm to that at 620 nm. The IC50 for each compound was derived from fitting the data to the four-parameter logistic equation by Dotmatics.

Another experiment has as its target CDK4/Cyclin D1 (Homo sapiens, UniProt P11802). The experiment in a line: inhibition of CDK4/Cyclin D1 kinase, TR-FRET. The note with it: CDK4/Cyclin D1, 1 mM ATP, 0.15 μM Rb (Ser780)-biotin substrate, pH 7.0, 60 min preincubation, 120 min reaction, room temperature; read-out: CDK4D1 IC50. The format is biochemical. The protocol: as §1

The structures appear in SMILES notation.

Chain of CDK6/Cyclin D3 (Q00534 whole entry): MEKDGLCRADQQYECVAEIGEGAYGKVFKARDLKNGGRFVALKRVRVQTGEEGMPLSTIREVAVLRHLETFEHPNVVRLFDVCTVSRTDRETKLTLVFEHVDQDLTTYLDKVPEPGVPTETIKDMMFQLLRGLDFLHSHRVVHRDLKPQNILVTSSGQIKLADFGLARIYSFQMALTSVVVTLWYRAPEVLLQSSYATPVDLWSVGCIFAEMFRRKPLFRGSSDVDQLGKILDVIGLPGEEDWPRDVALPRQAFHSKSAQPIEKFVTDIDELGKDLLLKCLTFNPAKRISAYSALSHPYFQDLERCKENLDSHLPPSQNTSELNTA
Chain of CDK6/Cyclin D3 (P30281 whole entry partner): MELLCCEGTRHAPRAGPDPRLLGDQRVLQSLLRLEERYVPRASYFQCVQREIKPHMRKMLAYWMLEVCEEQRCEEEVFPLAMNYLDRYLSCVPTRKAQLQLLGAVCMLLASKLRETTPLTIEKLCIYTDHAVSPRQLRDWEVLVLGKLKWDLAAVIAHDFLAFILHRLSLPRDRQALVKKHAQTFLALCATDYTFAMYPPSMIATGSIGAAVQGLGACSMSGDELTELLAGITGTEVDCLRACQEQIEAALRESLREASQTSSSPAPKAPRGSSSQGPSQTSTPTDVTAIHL
Chain of CDK4/Cyclin D1 (P11802 whole entry): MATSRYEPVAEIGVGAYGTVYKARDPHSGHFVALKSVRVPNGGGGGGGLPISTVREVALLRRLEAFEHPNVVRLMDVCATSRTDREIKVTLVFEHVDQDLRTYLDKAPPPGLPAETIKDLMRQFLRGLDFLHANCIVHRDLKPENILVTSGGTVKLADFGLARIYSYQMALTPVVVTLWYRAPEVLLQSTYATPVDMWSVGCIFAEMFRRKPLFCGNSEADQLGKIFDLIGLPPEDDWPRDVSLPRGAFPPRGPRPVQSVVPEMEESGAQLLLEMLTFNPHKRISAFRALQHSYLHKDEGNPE
Chain of CDK4/Cyclin D1 (P24385 whole entry partner): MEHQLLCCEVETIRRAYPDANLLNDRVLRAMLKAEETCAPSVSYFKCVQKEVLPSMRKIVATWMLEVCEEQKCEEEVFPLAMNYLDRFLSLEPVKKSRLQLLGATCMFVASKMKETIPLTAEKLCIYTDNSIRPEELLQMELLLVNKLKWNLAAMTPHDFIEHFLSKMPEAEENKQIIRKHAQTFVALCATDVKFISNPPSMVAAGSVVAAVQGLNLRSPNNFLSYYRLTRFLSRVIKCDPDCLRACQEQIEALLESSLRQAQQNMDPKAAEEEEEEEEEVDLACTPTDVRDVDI

`COC(=O)c1ccnc2c(F)cc(-c3nc(N[C@@H]4CCOC[C@H]4O)ncc3F)cc12` [Example A1, methyl 8-fluoro-6-(5-fluoro-2-(((3S,4R)-3-hydroxytetrahydro-2H-pyran-4-yl)amino)pyrimidin-4-yl) quinoline-4-carboxylate]: the IC50 on CDK6/Cyclin D3 was found to be 688 nM; on CDK4/Cyclin D1, 122 nM.
Taken in the same sequence, the figures for `CC(C)(O)c1ccnc2c(F)cc(-c3nc(N[C@@H]4CCOC[C@H]4O)ncc3F)cc12` [Example A2, (3S,4R)-4-((5-fluoro-4-(8-fluoro-4-(2-hydroxypropan-2-yl)quinolin-6-yl)pyrimidin-2-yl)amino)tetrahydro-2H-pyran-3-ol] were 84 nM and 12 nM.
The corresponding values for `Cc1cc(C(C)(C)O)c2cc(-c3nc(N[C@@H]4CCOC[C@H]4O)ncc3F)cc(F)c2n1` [Example A3, (3S,4R)-4-((5-fluoro-4-(8-fluoro-4-(2-hydroxypropan-2-yl)-2-methylquinolin-6-yl)pyrimidin-2-yl)amino)tetrahydro-2H-pyran-3-ol] are 249 nM and 33 nM.
As for `CC(C)(C)OC(=O)N1CCC(Nc2ncc(F)c(-c3cc(F)c4nccc(C(C)(C)O)c4c3)n2)CC1` [Example A4, tert-butyl 4-((5-fluoro-4-(8-fluoro-4-(2-hydroxypropan-2-yl)quinolin-6-yl)pyrimidin-2-yl)amino) piperidine-1-carboxylate], the IC50 at CDK6/Cyclin D3 came to 1700 nM; at CDK4/Cyclin D1, 171 nM.
The corresponding values for `CC(C)(O)c1ccnc2c(F)cc(-c3nc(NC4CCNCC4)ncc3F)cc12` [Example A5, 2-(8-fluoro-6-(5-fluoro-2-(piperidin-4-ylamino)pyrimidin-4-yl)quinolin-4-yl) propan-2-ol] are 220 nM and 83 nM.
Regarding `C[C@H](N)c1ccnc2c(F)cc(-c3nc(N[C@@H]4CCOC[C@H]4O)ncc3F)cc12` [Example A6, (3S,4R)-4-((4-(4-((S)-1-aminoethyl)-8-fluoroquinolin-6-yl)-5-fluoropyrimidin-2-yl)amino)tetrahydro-2H-pyran-3-ol], the IC50 on CDK6/Cyclin D3 was 760 nM; on CDK4/Cyclin D1, 32 nM.
As to `C[C@@H](N)c1ccnc2c(F)cc(-c3nc(N[C@@H]4CCOC[C@H]4O)ncc3F)cc12` [Example A7, (3S,4R)-4-((4-(4-((R)-1-aminoethyl)-8-fluoroquinolin-6-yl)-5-fluoropyrimidin-2-yl)amino)tetrahydro-2H-pyran-3-ol], the IC50 was 2380 nM on CDK6/Cyclin D3 and 97 nM on CDK4/Cyclin D1.

(Values after patent US20260347346A1, “SUBSTITUTED 6-(PYRIMIDIN-4-YL)QUINOLINE COMPOUNDS AS CYCLIN DEPENDENT KINASE INHIBITORS” (BeOne Medicines I GmbH, priority 2022, published 2026).)
